# Measured values reported in ChEMBL document CHEMBL1139756, “Synthesis and structure-activity relationship of novel indene N-oxide derivatives as potent peroxisome proliferator activated receptor gamma (PPARgamma) agonists” (Bioorg Med Chem Lett, 2007).
# Target: T1, Peroxisome proliferator-activated receptor gamma (Homo sapiens, UniProt P37231)
# T1 sequence (P37231 whole entry): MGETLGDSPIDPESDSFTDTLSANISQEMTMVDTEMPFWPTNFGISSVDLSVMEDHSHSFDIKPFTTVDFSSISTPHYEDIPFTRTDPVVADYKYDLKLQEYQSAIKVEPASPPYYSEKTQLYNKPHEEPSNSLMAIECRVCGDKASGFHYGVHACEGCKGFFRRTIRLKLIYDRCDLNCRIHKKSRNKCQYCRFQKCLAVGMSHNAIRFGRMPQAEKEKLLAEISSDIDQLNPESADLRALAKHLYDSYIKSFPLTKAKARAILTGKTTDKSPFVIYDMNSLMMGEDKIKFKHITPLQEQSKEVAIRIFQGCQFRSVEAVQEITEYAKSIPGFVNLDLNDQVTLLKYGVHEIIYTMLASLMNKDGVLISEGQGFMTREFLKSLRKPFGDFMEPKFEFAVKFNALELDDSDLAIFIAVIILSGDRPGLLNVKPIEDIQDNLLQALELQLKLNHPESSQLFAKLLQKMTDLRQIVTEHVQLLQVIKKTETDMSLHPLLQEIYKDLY
# Description: Agonist activity at human PPARgamma expressed in NIH3T3 cells by GAL4 transactivation assay
row,Compound,EC50 [nM]
1,CCOC(=O)C1=C(CC)c2ccc(OCCCc3ccccc3)cc2/C1=[N+](/C)[O-],80
2,CCOC(=O)C1=C(c2ccc(Cl)cc2)c2ccc(OCCCc3ccccc3)cc2/C1=[N+](/C)[O-],70
3,COC(=O)C1=C(c2ccccc2)c2ccc(OCCN3CCOCC3)cc2/C1=[N+](/C)[O-],140
4,CCOC(=O)C1=C(c2ccccc2)c2ccc(OC)cc2/C1=[N+](\[O-])Cc1ccccc1,> 10000
5,CCOC(=O)C1=C(c2ccccc2)c2ccc(OC)cc2/C1=N\OC,1500
6,CCOC(=O)C1=C(c2ccccc2)c2ccc(OC)cc2/C1=N\O,> 10000
7,CCOC(=O)C1=C(c2ccc(C)cc2)c2ccc(OCCCc3ccccc3)cc2/C1=[N+](/C)[O-],660
8,CCOC(=O)C1=C(c2cccc(C)c2)c2ccc(OCCCc3ccccc3)cc2/C1=[N+](/C)[O-],300
9,CCOC(=O)C1=C(c2ccsc2)c2ccc(OCCCc3ccccc3)cc2/C1=[N+](/C)[O-],190
10,CCOC(=O)C1=C(c2ncc[nH]2)c2ccc(OCCCc3ccccc3)cc2/C1=[N+](/C)[O-],> 1000
11,C/[N+]([O-])=C1\C=C(c2ccccc2)c2ccc(OCCN3CCOCC3)cc21,150
12,CCOC(=O)C1=C(c2ccc3c(c2)OCO3)c2ccc(OCCCc3ccccc3)cc2/C1=[N+](/C)[O-],250
13,C/[N+]([O-])=C1\C(C(=O)NC2CC2)=C(c2ccccc2)c2ccc(OCCN3CCOCC3)cc21,20
14,CCOC(=O)C1=C(c2ccccc2)c2ccc(OCc3ccccn3)cc2/C1=[N+](/C)[O-],90
15,CCOC(=O)C1=C(c2ccccc2)c2ccc(OC)cc2/C1=[N+](\[O-])CC,> 10000
16,CCOC(=O)C1=C(c2ccccc2)c2ccc(OCCC34CC5CC(CC(C5)C3)C4)cc2/C1=[N+](/C)[O-],840
